Source: patent US20230026277A1, “COMPOSITION FOR PREVENTION, ALLEVIATION, OR TREATMENT OF RESPIRATORY DISEASE” (MICROX CO., LTD., priority 2019, published 2023)

Assays:
Format in all cases: in vivo
IL-4, IL-5, and IL-13 = experiment: Cytokines in bronchoalveolar lavage fluid by ELISA, asthma-induced mice; conditions: asthma-induced mice; for expression levels of the cytokines (IL-4, IL-5, and IL-13): Experiment Result 7, orally administered daily, FIG. 20
Protocol: (§1) Eight-week-old female […] mice (Orient Bio Korea Inc., Korea) having no certain pathogen were accommodated in an aseptic laminar-flow cabinet, and bred by supplying a standard solid feed ad libitum. When the following experiment was performed, the mice were made to correspond to 7- to 8-weeks old, and all laboratory animals were managed according to the protocol approved by the Institutional Animal Care and Use Committee of the Chonbuk National University Medical School.
(§2) Also, on days 21 and 28 from the experimental starting date, the mice were put into a plastic box (Plexiglas (Rohm & Haas, Philadelphia, Pa.) exposure chamber; 24.5 cm×40.5 cm×15.0 cm), and 1.5% ovalbumin was evaporated using an ultrasonic nebulizer (NE-U12; output 0.8 mL/min; Omron, Japan), and injected into the box for 30 minutes so that the mice inhaled the evaporated ovalbumin (secondary challenge).
(§3) After the mice were anesthetized, a thin tube was inserted into the airway, and a piston process was repeated using a syringe filled with 0.2 mL of physiological saline to obtain a bronchoalveolar lavage fluid. The bronchoalveolar lavage fluid obtained through this piston process was stored at −70° C. when it was not immediately used in the experiments.
(§4) A level of cytokines in the bronchoalveolar lavage fluid obtained in Experimental Method 2 was measured using an ELISA kit. Here, ELISA kits specifically manufactured for TNF-α, IL-4, IL-5, and IL-13 were used.
Preparation Example 3 (α,δ-NA-L-G) or α,δ N-acetyl-D-glutamine was orally administered to the asthma-induced mice of Experimental Method 1 at a concentration of 100, 200, 400 or 800 μg/kg/day 30 minutes before a secondary airway challenge, and levels of IL-4, IL-5, and IL-13 were measured through the method described above in Experimental Method 4 24 hours after the secondary challenge. The results are shown in A and B of FIG. 4.

[1] = tested on: neutrophils and eosinophils introduced into the airway; experiment: Inflammatory cells (neutrophils and eosinophils) in bronchoalveolar lavage fluid, Diff-Quik staining, asthma-induced mice; conditions: asthma-induced mice; for cell numbers of neutrophils and eosinophils: Experiment Result 7, orally administered daily, FIG. 19
Protocol: as §1, §2, §3
50 μL of the bronchoalveolar lavage fluid obtained in Experimental Method 2 was put on a slide used for the cytospin, and centrifuged for 30 minutes. Thereafter, Diff-Quik staining was performed, and inflammatory cells (neutrophils and eosinophils) were observed using a microscope.
Preparation Example 3 (α,δ-NA-L-G) or α,δ N-acetyl-D-glutamine (α,δ-NA-D-G) was orally administered to the asthma-induced mice of Experimental Method 1 daily from the experimental starting date at a concentration of 50, 100, or 200 μg/kg/day, and the cell numbers of neutrophils and eosinophils introduced into the airway through the method of Experimental Method 3 were measured. The results are shown in A and B of FIG. 3. In this case, the cell numbers were measured at 10 hours (neutrophils) or 48 hours (eosinophils) after a secondary challenge.

asthma-induced mice = experiment: Bronchial hypersensitivity reaction (Rrs value, methacholine), asthma-induced mice; conditions: for bronchial hypersensitivity reaction: Experiment Result 7, orally administered daily, FIG. 21
Protocol: as §1, §2
45 mg/kg of sodium pentobarbital was intraperitoneally injected into the mice prepared in Experimental Method 1 to anesthetize the mice, and the airways were cut and an 18 gauge needle was inserted into the airways. Thereafter, the needle was connected to a small-sized animal respirator connected to a computer, and the computer system was adjusted to a respiration rate of 150 breaths per minute. Then, methacholine in the form of aerosol was fed at an increasing concentration of 5.0 to 50 mg/mL so that the mice inhaled the methacholine. Then, an airway response was measured, and indicated as an Rrs value.
Preparation Example 3 (α,δ-NA-L-G) or α,δ N-acetyl-D-glutamine was orally administered to the asthma-induced mice of Experimental Method 1 at a concentration of 200 or 400 μg/kg/day 30 minutes before a secondary airway challenge, and the bronchial hypersensitivity reaction was measured 48 hours after the secondary challenge using the method described in Experimental Method 5. The results are shown in A and B of FIG. 5.

CK2α protein = experiment: Western blot of CK2α protein in lung of asthma-induced mice; conditions: administered daily; 1 or 2 hours after the secondary challenge; FIG. 10
Protocol: as §2
A tissue was extracted from each of the mice manufactured in Experimental Method 1, and finely ground to a cell level. Thereafter, the cells were lysed in a cell lysis buffer containing a protease inhibitor to obtain a cell lysate. The cell lysate was centrifuged to obtain protein. Then, an equivalent amount of the proteins obtained from the cells were loaded on an SDS-PAGE gel and electrophoresed. The proteins present in the electrophoresed gel were transferred to a PVDF membrane. The PVDF membrane was washed, and added to a blocking buffer in which 5% skim milk was included in a TBS-T buffer, and incubated at room temperature. Then, the PVDF membrane was incubated at room temperature with an antibody diluted 1:1,000 in a TBS-T buffer containing 3% BSA. […] The PVDF membrane was washed three times with a TBS-T buffer, and visualized and quantified using an ECL Western blotting detection reagent. […]
(§5) Specifically, the secondary challenge (ovalbumin injection) was performed according to the method described above in Experimental Method 1, and the lungs were extracted after an hour, and then measured according to the method described above in Experimental Method 7. […] Also, the level of TNF-α corresponding to an NK-κB-dependent cytokine was measured by ELISA according to the method described above in Experimental Method 4. […]
The secondary challenge (ovalbumin injection) was performed according to the method described above in Experimental Method 1, and the lungs were extracted after 1 or 2 hours, and then measured according to the method described above in Experimental Method 7. […]

NF-κB and TNF-α = experiment: NF-κB (Western blot) and TNF-α (ELISA) in asthma-induced mice; conditions: administered daily
Protocol: as §2, §4
A tissue was extracted from each of the mice manufactured in Experimental Method 1, and finely ground to a cell level. Thereafter, the cells were lysed in a cell lysis buffer containing a protease inhibitor to obtain a cell lysate. The cell lysate was centrifuged to obtain protein. Then, an equivalent amount of the proteins obtained from the cells were loaded on an SDS-PAGE gel and electrophoresed. The proteins present in the electrophoresed gel were transferred to a PVDF membrane. The PVDF membrane was washed, and added to a blocking buffer in which 5% skim milk was included in a TBS-T buffer, and incubated at room temperature. Then, the PVDF membrane was incubated at room temperature with an antibody diluted 1:1,000 in a TBS-T buffer containing 3% BSA. Then, the PVDF membrane was washed with a TBS-T buffer, and incubated at room temperature for an hour with a dilute solution containing HRP-bound IgG. The PVDF membrane was washed three times with a TBS-T buffer, and visualized and quantified using an ECL Western blotting detection reagent.
Here, antibodies specific to elastin, caspase-3, collagen, MKP-1, p-cPLA, p-p38, NF-κB(p65), CK2α, GAPDH, or β-actin were used in the Western blot.
Specifically, the secondary challenge (ovalbumin injection) was performed according to the method described above in Experimental Method 1, and the lungs were extracted after an hour, and then measured according to the method described above in Experimental Method 7. The results are shown in A of FIG. 9. Also, the level of TNF-α corresponding to an NK-κB-dependent cytokine was measured by ELISA according to the method described above in Experimental Method 4. The results are shown in B of FIG. 9. […]
as §5, with “The” for “Specifically, the”, “30 or 60 minutes,” for “an hour,”

In the case of `CC(=O)NC(=O)CC[C@H](NC(C)=O)C(=O)OCc1ccccc1` [Preparation Example 2, Benzyl 2,5-diacetamido-5-oxopentanoate], the “expression levels of the cytokines (IL-4, IL-5, and IL-13)” value (from here on “expression levels of the cytokines”) (IL-4, IL-5, and IL-13) is reported as “decreased”, the “cell numbers of neutrophils and eosinophils” value (shortened to “cell numbers”) [1] is reported as “decreased” and the bronchial hypersensitivity reaction (asthma-induced mice) is reported as “inhibited”.

For `CCOC(=O)[C@H](CCC(=O)NC(C)=O)NC(C)=O` [Preparation Example 4, Ethyl 2,5-diacetamido-5-oxopentanoate], the “expression levels of the cytokines” value (IL-4, IL-5, and IL-13) was “decreased”, the “cell numbers” value [1] was “decreased” and the bronchial hypersensitivity reaction (asthma-induced mice) was “inhibited”.

With `COC(=O)[C@H](CCC(=O)NC(C)=O)NC(C)=O` [Preparation Example 6] the “expression levels of the cytokines” value (IL-4, IL-5, and IL-13) was “decreased”, the “cell numbers” value [1] was “decreased” and the bronchial hypersensitivity reaction (asthma-induced mice) was “inhibited”.

`Oc1ccc(-c2nc(-c3ccncc3)c(-c3ccc(F)cc3)[nH]2)cc1` [SB202190, reference compound] was tested, and the “level of the CK2α protein” value (CK2α protein) was “decreased”.

In the case of `Brc1c(Br)c(Br)c2n[nH]nc2c1Br` [inhibitor of the CK2α protein, TBBt, reference compound], the “level of the presence of the TNF-α protein” value (NF-κB and TNF-α; ELISA, FIG. 11B) is reported as “decreased” and the “level of the NF-κB protein” value (NF-κB and TNF-α; at 30 and 60 minutes after secondary challenge, FIG. 11) is reported as “decreased”.

For `CC(=O)NC(=O)CC[C@@H](NC(C)=O)C(=O)O` [α,δ N-acetyl-D-glutamine, reference compound], the “levels of the cytokines (IL-4, IL-5, IL-13)” value (IL-4, IL-5, and IL-13; oral 100, 200, 400 or 800 μg/kg/day, regardless of the concentration, 24 hours after secondary challenge, FIG. 4B) was “did not inhibit”, the “inflow of the neutrophils and eosinophils into the airway” value ([1]; oral daily 50, 100 or 200 μg/kg/day, neutrophils 10 hours, eosinophils 48 hours after secondary challenge, FIG. 3) was “not inhibited” and the “Rrs value (bronchial hypersensitivity reaction)” value (asthma-induced mice; oral 200 or 400 μg/kg/day 30 minutes before secondary challenge, 48 hours after, methacholine 5.0 to 50 mg/mL, FIG. 5) was “did not exhibit an inhibitory effect”.
